In patent US20250073201A1, “COMPOSITIONS AND METHODS FOR TREATING ACUTE ALCOHOL INTAKE” (NEXT LEVEL HEALTH SCIENCES INC, priority 2021, published 2025):

Test system: hangover symptoms
Experiment: Testing of composition components on alcohol-induced (hangover) symptoms
Assay type: in vivo, human
Experimental: To test, various components of the compositions disclosed herein, individuals were selected to test the efficacy of various formulations. The scale employed during the testing of alcohol-induced symptoms was as follows: (a) no symptoms; (b) very mild symptoms; (c) mild symptoms; (d) moderate symptoms; (e) severe symptoms; and/or (f) very severe symptoms. […] The testing was carried out by a person of average size and build consuming standard alcoholic drinks (e.g., a beer) and the components below were consumed generally prior to consumption of alcohol. […]

[1] = man of average size, standard alcoholic drinks, taken prior to alcohol

O=C1c2c(O)cc(O)cc2O[C@H](c2cc(O)c(O)c(O)c2)[C@H]1O [DHM, dihydromyricetin]
alcohol-induced symptoms (3 drinks, 300 mg DHM (without DHM: very mild symptoms)): elimination of all symptoms | alcohol-induced symptoms (3 drinks, less than 300 mg DHM (without DHM: very mild symptoms)): no reduction of symptoms | alcohol-induced symptoms (6 drinks, 300 mg DHM (without DHM: moderate symptoms)): reduction to mild symptoms | alcohol-induced symptoms (6 drinks, 750 mg DHM (without DHM: moderate symptoms)): reduction to very mild symptoms | alcohol-induced symptoms (6 drinks, 1200 mg DHM (without DHM: moderate symptoms)): elimination of all symptoms | alcohol-induced symptoms (9 drinks, 300 mg DHM (without DHM: severe symptoms)): no reduction of symptoms | alcohol-induced symptoms (9 drinks, 750 mg DHM (without DHM: severe symptoms)): reduction to moderate symptoms | alcohol-induced symptoms (9 drinks, 1200 mg DHM (without DHM: severe symptoms)): reduction to mild symptoms | alcohol-induced symptoms (9 drinks, 1500 mg DHM (without DHM: severe symptoms)): reduction to very mild symptoms | alcohol-induced symptoms (9 drinks, 1850 mg DHM (without DHM: severe symptoms)): reduction of all symptoms with the sole exception of fatigue | elimination of all symptoms (12 and 15 drinks, all DHM doses tested): no dose of DHM, as tested, eliminated all symptoms | alcohol-induced symptoms (12 drinks, 750 mg DHM (without DHM: severe symptoms)): no reduction of symptoms | alcohol-induced symptoms (12 drinks, 1200 mg DHM (without DHM: severe symptoms)): no reduction of symptoms | alcohol-induced symptoms (12 drinks, 1500 mg DHM (without DHM: severe symptoms)): reduction to moderate symptoms | alcohol-induced symptoms (12 drinks, 1850 mg DHM (1500 mg gave moderate symptoms)): no further reduction in symptoms | alcohol-induced symptoms (12 drinks, 2400 mg DHM (1500 mg gave moderate symptoms)): no further reduction in symptoms | alcohol-induced symptoms (15 drinks, 1500 mg DHM (without DHM: very severe symptoms)): no reduction of symptoms | alcohol-induced symptoms (15 drinks, 1850 mg DHM (without DHM: very severe symptoms)): reduction to severe symptoms | alcohol-induced symptoms (15 drinks, 2400 mg DHM (1850 mg gave severe symptoms)): no further reduction of symptoms | alcohol-induced symptoms (15 drinks, 3600 mg DHM (1850 mg gave severe symptoms)): no further reduction of symptoms | alcohol-induced symptoms (18 drinks, 1850 mg DHM (without DHM: very severe symptoms)): no reduction of symptoms | alcohol-induced symptoms (18 drinks, 2400 mg DHM (without DHM: very severe symptoms)): no reduction of symptoms | alcohol-induced symptoms (18 drinks, 3600 mg DHM (without DHM: very severe symptoms)): no reduction of symptoms | alcohol-induced symptoms (18 drinks, 5000 mg DHM (without DHM: very severe symptoms)): no reduction of symptoms | dosage above which no additional benefits were seen [1]: about 1850 mg | dosage at which benefits on hangover symptoms begin [1]: about 300 mg
